The record followed here is patent publication US20170273922A1, “UREA AND BIS-UREA BASED COMPOUNDS AND ANALOGUES THEREOF USEFUL IN THE TREATMENT OF ANDROGEN RECEPTOR MEDIATED DISEASES OR DISORDERS” (THE ROYAL INSTITUTION FOR THE ADVACEMENT OF LEARNING/MCGILL …, priority 2014, published 2017).

Series [1] concerns the target T1, IRF3DBD-AR(1-547) (Homo sapiens, UniProt P10275).
T1 construct: IRF3-AR(1-547) is the fusion of IRF3 DBD with the AR NTD (1-547); expressed in transfected cells
T1 sequence (P10275 1-547): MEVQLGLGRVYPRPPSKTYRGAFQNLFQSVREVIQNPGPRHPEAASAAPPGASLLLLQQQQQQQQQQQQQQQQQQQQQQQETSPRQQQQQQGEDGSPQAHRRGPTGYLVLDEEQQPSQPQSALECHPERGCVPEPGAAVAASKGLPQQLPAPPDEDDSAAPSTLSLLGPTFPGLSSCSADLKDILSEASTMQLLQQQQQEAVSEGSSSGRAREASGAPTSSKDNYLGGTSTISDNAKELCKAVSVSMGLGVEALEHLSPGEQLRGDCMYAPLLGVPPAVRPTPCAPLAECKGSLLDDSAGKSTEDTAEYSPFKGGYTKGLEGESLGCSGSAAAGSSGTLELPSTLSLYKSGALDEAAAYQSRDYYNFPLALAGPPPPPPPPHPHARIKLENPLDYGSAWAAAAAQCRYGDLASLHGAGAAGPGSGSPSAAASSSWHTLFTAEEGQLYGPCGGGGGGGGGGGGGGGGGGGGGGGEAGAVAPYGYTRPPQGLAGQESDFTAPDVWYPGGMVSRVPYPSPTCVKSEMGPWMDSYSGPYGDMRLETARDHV
As to the kind of experiment: IRF3DBD-AR(1-547) ISRE-luc reporter assay. The class given is cell-based. As to conditions: PC3 cells, 24 h. A general note: Reporter assays use an easily measured gene product as a stand-in for the process of interest.

Series [2] addresses T2, full-length IRF3 (Homo sapiens, UniProt Q14653).
T2 construct: co-transfected with full-length IRF3 or IRF3DBD-AR(1-547) expressing plasmids; expressed in transfected cells
T2 sequence (Q14653 1-427): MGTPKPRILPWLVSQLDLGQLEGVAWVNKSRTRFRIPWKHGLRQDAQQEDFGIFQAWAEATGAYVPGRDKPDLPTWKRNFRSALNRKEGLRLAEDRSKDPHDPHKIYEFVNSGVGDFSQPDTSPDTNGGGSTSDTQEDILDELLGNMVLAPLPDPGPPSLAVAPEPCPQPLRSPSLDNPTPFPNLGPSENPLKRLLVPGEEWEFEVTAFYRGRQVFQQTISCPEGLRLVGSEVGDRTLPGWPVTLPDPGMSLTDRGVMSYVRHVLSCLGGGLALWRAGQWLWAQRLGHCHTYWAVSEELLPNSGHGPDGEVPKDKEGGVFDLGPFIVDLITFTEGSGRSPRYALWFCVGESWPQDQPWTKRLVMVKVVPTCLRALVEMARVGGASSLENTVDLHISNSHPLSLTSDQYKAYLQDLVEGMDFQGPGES
The experiment in a line: Full-length IRF3 ISRE-luc reporter assay. As to conditions: PC3 cells, 24 h. Type of series: cell-based. The source says: For all of the others, cells were co-transfected with full-length IRF3 or IRF3DBD-AR(1-547) expressing plasmids and with the ISRE-luc reporter and pRL-TK plasmids. […] As IRF3DBD-AR(1-547) contains the DBD of IRF3, ISRE-luc reporter instead of the PSA-luc reporter was used in our assays.
HEK293 cells were co-transfected with IRF3DBD(1-133) or IRF3DBD-AR(1-547) or IRF3DBD-AR(181-547) or full-length IRF3 expressing plasmids and with the ISRE-luc reporter and the Renilla luciferase pRL-TK plasmids.
Here, IRF3-AR(1-547) is the fusion of IRF3 DBD with the AR NTD (1-547). […] The plasmids expressing IRF3-AR(1-547) (A) or wild-type IRF3 (B) or IRF3 DBD (for NT) as well as ISRE-luc and pRL-TK were transiently transfected into PC3 cells. […] Bic, bicalutamide; EPI, EPI-001.

Series [3] can be described thus: MTT assay (cytotoxicity), LNCaP cells. Type of series: cell-based. The following applies: human, LNCaP cells, 72 h, Table 2.4. An outline of the steps: (§1)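 Cells grown in RPMI 1640 with 10% FBS were seeded at 6-7×10^3 per well, left overnight, then exposed to test compounds at designated concentrations or DMSO vehicle for 72 h in fresh medium. Viability was read by MTT; triplicates, repeated at least twice.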
On the technique in general: Formazan colour is commonly taken as a measure of viable cells.

Series [4] can be described thus: MTT assay (cytotoxicity), 22Rv1 cells. The class given is cell-based. The following applies: human, 22Rv1 cells, 72 h, Table 2.4. The essentials:
as §1

Series [5] can be described thus: MTT assay (cytotoxicity), DU145 cells. Type of series: cell-based. The following applies: human, DU145 cells, Table 2.4. The method, then:
(§2) MTT assays: LNCaP, 22Rv1, Du145, H1975, A549, MB231 and MCF-7 cells are maintained in RPMI 1640 supplemented with 10% FBS. Cells were seeded at a density of 6-7×10^3 cells per well in 96-well plates. After overnight incubation, cells in fresh RPMI 1640 supplemented with 10% FBS were exposed to DMSO vehicle control or test compounds at designated concentrations for 72 h. Viable cells were evaluated by MTT assays. Experiments were performed in triplicate and repeated at least twice.

Series [6] in a line: MTT assay (cytotoxicity), H1975 cells. Type of series: cell-based. As to conditions: human, 72 h treatment, Table 6.1. The method, then:
as §2

Series [7] in a line: MTT assay (cytotoxicity), A549 cells. Type of series: cell-based. As to conditions: human, 72 h treatment, Table 6.1. On the procedure: as §2
Series [8] in a line: MTT assay (cytotoxicity), MB231 cells. The following applies: human, 72 h treatment, Table 6.1. Type of series: cell-based. On the procedure:
as §2

The nature of series [9]: MTT assay (cytotoxicity), MCF-7 cells. The class given is cell-based. The following applies: human, 72 h treatment, Table 6.1. On the procedure: as §2
A short description of series [10]: MTT assay (72 h), liver hepatocellular carcinoma cell line of Table 6.1. Type of series: cell-based. The following applies: human, HepG2 cells (liver hepatocellular carcinoma), 72 h treatment, read-out: Cytotoxicity (IC50, μM) HepG2.
For series [11], the system named is VP16-AR(507-919). The experiment in a line: VP16-AR(507-919) (NTD-deleted) PSA-luc reporter assay. As to conditions: 10 nM DHT, 24 h; PC3 or HEK293 cells.
Series [12] has as its system LNCaP cells. The experiment in a line: MTT assay (cytotoxicity), LNCaP cells. Type of series: cell-based. The essentials:
as §1

For series [13], the system named is 22Rv1 cells. As to the kind of experiment: MTT assay (cytotoxicity), 22Rv1 cells. The class given is cell-based. An outline of the steps:
as §1

The subject of series [14] is H1975 cells. As to the kind of experiment: MTT assay (cytotoxicity), H1975 cells. Type of series: cell-based. As to conditions: 72 h treatment, Table 6.1. The method, then: as §2
Series [15] has as its system A549 cells. The experiment in a line: MTT assay (cytotoxicity), A549 cells. Type of series: cell-based. As to conditions: 72 h treatment, Table 6.1. On the procedure: as §2
Series [16] relates to MB231 cells. As to the kind of experiment: MTT assay (cytotoxicity), MB231 cells. Type of series: cell-based. The following applies: 72 h treatment, Table 6.1. On the procedure:
as §2

For series [17], the system named is MCF-7 cells. The experiment in a line: MTT assay (cytotoxicity), MCF-7 cells. Type of series: cell-based. The following applies: 72 h treatment, Table 6.1. On the procedure: as §2
Series [18] deals with liver hepatocellular carcinoma. As to the kind of experiment: MTT assay (72 h), liver hepatocellular carcinoma cell line of Table 6.1. The following applies: HepG2 cells, 72 h treatment, read-out: Cytotoxicity (IC50, μM) HepG2. Type of series: cell-based.
Series [19] has as its target T3, endogenous AR T877A mutant in LNCaP cells (Homo sapiens, UniProt P10275, T878A).
T3 construct: LNCaP cells, which express endogenous AR T877A mutant; endogenous in cells; host or cells: LNCaP
T3 sequence (P10275 1-920 T878A): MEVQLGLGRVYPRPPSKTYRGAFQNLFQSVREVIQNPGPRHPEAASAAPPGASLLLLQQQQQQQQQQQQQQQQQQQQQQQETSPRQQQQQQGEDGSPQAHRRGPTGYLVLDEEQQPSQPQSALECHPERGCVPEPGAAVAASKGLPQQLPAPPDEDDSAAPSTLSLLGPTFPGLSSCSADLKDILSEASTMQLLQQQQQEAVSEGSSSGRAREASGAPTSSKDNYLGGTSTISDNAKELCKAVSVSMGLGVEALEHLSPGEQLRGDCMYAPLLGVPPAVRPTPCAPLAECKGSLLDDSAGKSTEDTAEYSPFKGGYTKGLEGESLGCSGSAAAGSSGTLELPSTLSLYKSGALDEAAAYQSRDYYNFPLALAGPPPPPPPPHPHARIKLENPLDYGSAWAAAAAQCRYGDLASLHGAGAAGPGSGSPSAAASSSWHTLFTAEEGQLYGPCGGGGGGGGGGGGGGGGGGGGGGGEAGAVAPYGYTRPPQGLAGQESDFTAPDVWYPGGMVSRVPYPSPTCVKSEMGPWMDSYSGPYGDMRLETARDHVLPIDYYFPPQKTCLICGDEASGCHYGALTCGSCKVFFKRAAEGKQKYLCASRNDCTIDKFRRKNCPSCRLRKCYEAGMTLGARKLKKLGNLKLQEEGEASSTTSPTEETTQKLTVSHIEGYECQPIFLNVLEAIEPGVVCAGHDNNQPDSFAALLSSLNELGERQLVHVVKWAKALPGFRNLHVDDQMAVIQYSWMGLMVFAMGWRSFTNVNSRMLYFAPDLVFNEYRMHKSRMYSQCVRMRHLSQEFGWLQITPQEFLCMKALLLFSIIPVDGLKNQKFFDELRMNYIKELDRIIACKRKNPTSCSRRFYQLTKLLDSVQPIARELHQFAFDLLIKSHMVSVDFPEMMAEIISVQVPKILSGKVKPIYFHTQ
The experiment in a line: PSA-luc reporter assay in LNCaP cells (endogenous AR T877A mutant). Type of series: cell-based. As to conditions: PSA-luc, 24 h. On the procedure:
Experiments were in duplicate and repeated three times. […] LNCaP cells in whole medium were exposed to DMSO vehicle control or compounds for 24 h.

Series [20] addresses T4, T877A mutant of full-length AR (Homo sapiens, UniProt P10275, T878A).
T4 sequence (P10275 1-920 T878A): T3 sequence (P10275 1-920 T878A)
As to the kind of experiment: AR T877A mutant PSA-luc reporter assay in PC3 cells. As to conditions: absence of DHT, 24 h. The class given is cell-based. The text has this: ENZ, enzalutamide; Bic, bicalutamide; OHF, hydroxyflutamide.

As usually defined, the IC50 is the concentration needed to halve the response being measured.

The structures appear in SMILES notation.

For the compound `O=C(Nc1cccc(C(F)(F)F)c1)Nc1ccc(F)cc1NC(=O)c1cc(Cl)ccc1F` [Compound 968], in series [1], the “inhibition of IRF3-AR(1-547)-dependent ISRE-luc reporter activity” value is recorded as “potently inhibit”. Also, in [2], the “activity against wild-type IRF3 (ISRE-luc)” value is “inactive”.

Take `N#Cc1ccc(NC(=O)N/C=C/c2cccs2)cc1C(F)(F)F` [Compound 428]: the IC50 at 72 h in [3] came out at 2.1 µM; in [4], 3.7 µM; in series [5], 5.1 µM; in [6], 7.7 µM; in [7], 4.7 µM; in series [8] it was 7.6 µM. In addition, the IC50 at 72 h was 5.2 µM in series [9] and 2.4 µM in series [10]. In addition, the “inhibition of IRF3-AR(1-547)-dependent ISRE-luc reporter activity” value in series [1] is “potently inhibit”. Besides, in series [2], the “activity against wild-type IRF3 (ISRE-luc)” value was “inactive”. Also, in [11], the “inhibition of DHT-induced activation of VP16-AR(507-919) (PSA-luc)” value is “inactive”.

In the case of `O=C(N/C=C/c1cccc(C(F)(F)F)c1)Nc1cnccn1` [Compound 558], the half-maximal inhibitory concentration (IC50) in series [12] (72 h, Table 2.1) came to 0.06 µM; in series [12] (LNCaP cells, 72 h treatment, Table 6.1), 0.06 µM; in [13] (22Rv1 cells, 72 h treatment, Table 6.1), 0.1 µM; in series [13] (72 h, Table 2.1), 0.1 µM; in [14], 2.4 µM; in series [15], 0.09 µM. Moreover, the IC50 was 0.3 µM in series [16], < 0.5 µM in series [17] and 0.14 µM in series [18].

For the compound `O=C(N/C=C/c1cccc(C(F)(F)F)c1)NCc1ccc([N+](=O)[O-])cc1` [Compound 447], the half-maximal inhibitory concentration (IC50) at 72 h in series [3] was 7.5 µM; in [4], 7.5 µM; in series [5] it was 8 µM. Further, the “effect of increasing DHT from 1 nM to 10 nM on inhibitory activity in LNCaP cells” value in [19] is “not competed out”.

For the compound `CC(C)(O)C(=O)Nc1ccc([N+](=O)[O-])c(C(F)(F)F)c1` [hydroxyflutamide, reference compound], the “agonism of AR T877A mutant (PSA-luc)” value in series [20] is reported as “activated”.
